Assay results from US20250332173A1, “COMPOUNDS AND METHODS FOR MODULATING NUCLEIC ACID SPLICING” (REMIX THERAPEUTICS INC., priority 2021, published 2025).
Like-named read-outs stand apart in the source and are kept apart here.

Tests used:
MYB = assay: HiBiT protein abundance assay, MYB HiBiT K562 cell line; type: cell-based, human; conditions: HiBiT K562 cell line, 24 hours, top dose 10 μM; read-out: Effect on protein abundance, MYB (IC50 category)
Procedure, shortened: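 Endogenous targets in K562 knock-in lines carried a HiBiT tag and were treated for 24 h at 37 °C with 10-point 3-fold dilutions (top 10 μM final, DMSO ≤0.25%). Abundance was read as lytic Nano-Glo HiBiT luminescence. IC50 came from a four-parameter logistic fit of normalized response.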

HTT mRNA = assay: RT-qPCR splicing assay, HTT canonical junction (CJ) and alternative junction (AJ) mRNA; type: cell-based, human; conditions: Homo sapiens; for AC50: increase in HTT alternative junction (AJ) mRNA, read-out: HTT AJ AC50
Procedure, shortened: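 A673 or K562 cells were treated for 24 h at 37 °C with an 11-point 3-fold compound dilution series (top final concentration 10 uM, DMSO ≤0.25%). After lysis, one-step TaqMan RT-qPCR quantified junction transcripts, normalized to PPIA for A673 or to GAPDH/GUSB for K562.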

[1] = test system: K562 (human chronic myelogenous leukemia) cells; assay: Cell Titer Glo 2.0 cell viability assay; type: cell-based; conditions: Homo sapiens, K562, 72 h, K562 cells, 72 hours, Cell Titer Glo 2.0; read-out: K562 GI50
[2] = decrease in HTT canonical junction (CJ) mRNA, RT-qPCR, read-out: HTT CJ IC50
[3] = Table 5 panel, canonical junction qPCR, compound concentration having 50% response in CJ decrease, read-out: HTT IC50 (decrease in CJ mRNA levels)

| IC50 (MYB) [µM] | IC50 (HTT mRNA; [2]) [µM] | IC50 (HTT mRNA; [3]) [µM] | GI50 [1] [µM] | Structure (SMILES) | AC50 (HTT mRNA; RT-qPCR) [µM] |
| --- | --- | --- | --- | --- | --- |
| < 0.1 | < 0.1 | < 0.1 | 0.1 to 1 | Cc1cn2nc(-c3cc(F)c4c(=O)n(C5CCNC6(CC6)C5)ccc4c3)cc(C)c2n1 (centres unmarked) [Compound 380, 6-(2,8-dimethylimidazo[1,2-b]pyridazin-6-yl)-8-fluoro-2-(4-azaspiro[2.5]octan-7-yl)isoquinolin-1(2H)-one] | < 0.1 |
| 0.1 to 1 | 1 to 10 | 1 to 10 | 1 to 10 | Cc1cn2cc(-c3ccc4c(=O)n([C@@H]5CCCNC5)ccc4c3)cc(F)c2n1 (single isomer, unassigned) [Compound 403] | 1 to 10 |
| 0.1 to 1 | 1 to 10 | 1 to 10 | 1 to 10 | Cc1cn2nc(-c3ccc4c(=O)n(C5CCCNC5)ccc4c3)cc(C)c2n1 (stereo in doubt) [Compound 410, 6-{2,8-dimethylimidazo[1,2-b]pyridazin-6-yl}-2-[(3S)-piperidin-3-yl]isoquinolin-1-one] | 1 to 10 |
| 0.1 to 1 | 1 to 10 | 1 to 10 | 1 to 10 | Cc1cn2cc(-c3ccc4c(=O)n([C@H]5CCCNC5)ccc4c3)cc(F)c2n1 [Compound 404, 6-{8-fluoro-2-methylimidazo[1,2-a]pyridin-6-yl}-2-[(3S)-piperidin-3-yl]isoquinolin-1-one] | 1 to 10 |
| < 0.1 | < 0.1 | < 0.1 | 0.1 to 1 | Cc1cn2nc(-c3ccc4c(=O)n([C@@H]5CCNC6(CC6)C5)ncc4c3)cc(C)c2n1 (stereo in doubt) [Compound 368, 2-[(7R)-4-azaspiro[2.5]octan-7-yl]-6-{2,8-dimethylimidazo[1,2-b]pyridazin-6-yl}phthalazin-1-one] | < 0.1 |
| < 0.1 | < 0.1 | < 0.1 | < 0.1 | Cc1cn2nc(-c3ccc4c(=O)n([C@H]5CCNC6(CC6)C5)ccc4c3)cc(C)c2n1 [Compound 445] | < 0.1 |
| 0.1 to 1 | 1 to 10 | 1 to 10 | 1 to 10 | Cc1cn2nc(-c3cc(F)c4c(=O)n(C5CCNC5)ccc4c3)cc(C)c2n1 (stereo in doubt) [Compound 392, (S)-6-(2,8-dimethylimidazo[1,2-b]pyridazin-6-yl)-8-fluoro-2-(pyrrolidin-3-yl)isoquinolin-1(2H)-one] | 1 to 10 |
| 1 to 10 | > 10 | > 10 | 1 to 10 | Cc1cn2cc(-c3ccc4c(=O)n(C5CCNC5)cc(C)c4c3)cc(F)c2n1 (centres unmarked) [Compound 441, 6-{8-fluoro-2-methylimidazo[1,2-a]pyridin-6-yl}-4-methyl-2-(pyrrolidin-3-yl)isoquinolin-1-one] | > 10 |
| < 0.1 | < 0.1 | < 0.1 | < 0.1 | Cc1cn2nc(-c3cc(F)c4c(=O)n([C@@H]5CCNC6(CC6)C5)ccc4c3)cc(C)c2n1 (single isomer, unassigned) [Compound 425] | < 0.1 |
| < 0.1 | < 0.1 | < 0.1 | < 0.1 | Cc1cn2nc(-c3cc(F)c4c(=O)n([C@H]5CCNC6(CC6)C5)ccc4c3)cc(C)c2n1 (single isomer, unassigned) [Compound 426] | < 0.1 |
| < 0.1 | 0.1 to 1 | 0.1 to 1 | 0.1 to 1 | CCN1CCC(n2ccc3cc(-c4cc(C)c5nc(C)cn5n4)ccc3c2=O)CC1 [Compound 402, 6-{2,8-dimethylimidazo[1,2-b]pyridazin-6-yl}-2-(1-ethylpiperidin-4-yl)isoquinolin-1-one] | 0.1 to 1 |
| < 0.1 | < 0.1 | < 0.1 | 0.1 to 1 | Cc1cn2nc(-c3ccc4c(=O)n(C5CCNC6(CC6)C5)ccc4c3)cc(C)c2n1 (centres unmarked) [Compound 384] | < 0.1 |
| 1 to 10 | 1 to 10 | 1 to 10 | 1 to 10 | Cc1cn2nc(-c3ccc4c(=O)n(C5CCCNC5)ccc4c3)cc(C)c2n1 (stereo in doubt) [Compound 411, 6-{2,8-dimethylimidazo[1,2-b]pyridazin-6-yl}-2-[(3R)-piperidin-3-yl]isoquinolin-1-one] | 1 to 10 |
| < 0.1 | 1 to 10 | 1 to 10 | 1 to 10 | Cc1cn2nc(-c3cc(O)c4c(=O)n(C5CCNC5)ccc4c3)cc(C)c2n1 (centres unmarked) [Compound 432, 6-{2,8-dimethylimidazo[1,2-b]pyridazin-6-yl}-8-hydroxy-2-(pyrrolidin-3-yl)isoquinolin-1-one] | 1 to 10 |

More lines, now with the values behind:

| Structure (SMILES) | IC50 (MYB) [µM] | IC50 (HTT mRNA; [2]) [µM] | IC50 (HTT mRNA; [3]) [µM] | GI50 [1] [µM] | AC50 (HTT mRNA; RT-qPCR) [µM] |
| --- | --- | --- | --- | --- | --- |
| Cc1cn2cc(-c3cc(F)c4c(=O)n(C5CCNC6(CC6)C5)ccc4c3)ncc2n1 (centres unmarked) [Compound 428, 8-fluoro-6-(2-methylimidazo[1,2-a]pyrazin-6-yl)-2-(4-azaspiro[2.5]octan-7-yl)isoquinolin-1(2H)-one] | 0.1 to 1 | 1 to 10 | 1 to 10 | 1 to 10 | 1 to 10 |
| Cn1cc2cc(-c3cc(F)c4c(=O)n(C5CCNCC5)ccc4c3)cc(C#N)c2n1 [Compound 394, 5-(8-fluoro-1-oxo-2-(piperidin-4-yl)-1,2-dihydroisoquinolin-6-yl)-2-methyl-2H-indazole-7-carbonitrile] | < 0.1 | < 0.1 | < 0.1 | < 0.1 | < 0.1 |
| Cc1cn2nc(-c3cc(F)c4c(=O)n([C@@H]5CCNC6(CC6)C5)ncc4c3)cc(C)c2n1 [Compound 446] | < 0.1 | < 0.1 | < 0.1 | 0.1 to 1 | < 0.1 |
| Cn1cc2cc(-n3cnc4cc(C5CCNCC5)ccc4c3=O)ccc2n1 [Compound 172] | > 10 | > 10 | > 10 | 1 to 10 | > 10 |
| Cc1cn2cc(-c3cc(N)c4c(=O)n(C5CCNCC5)cnc4c3)cc(C#N)c2n1 [Compound 364, 6-[5-amino-4-oxo-3-(piperidin-4-yl)quinazolin-7-yl]-2-methylimidazo[1,2-a]pyridine-8-carbonitrile] | > 10 | > 10 | > 10 | > 10 | > 10 |
| Cc1cn2cc(-c3cc(F)c4c(=O)n(C5CCNC6(CC6)C5)ccc4c3)cc(C)c2n1 (centres unmarked) [Compound 416, 2-{4-azaspiro[2.5]octan-7-yl}-6-{2,8-dimethylimidazo[1,2-a]pyridin-6-yl}-8-fluoroisoquinolin-1-one] | < 0.1 | 0.1 to 1 | 0.1 to 1 | < 0.1 | 0.1 to 1 |
| Cc1cn2cc(-c3cc(F)c4c(=O)n(C5CCOC5)cnc4c3)cc(C#N)c2n1 (stereo in doubt) [Compound 500, (S)-6-(5-fluoro-4-oxo-3-(tetrahydrofuran-3-yl)-3,4-dihydroquinazolin-7-yl)-2-methylimidazo[1,2-a]pyridine-8-carbonitrile] | 0.1 to 1 | 0.1 to 1 | 0.1 to 1 | 0.1 to 1 | 0.1 to 1 |
| Cn1cc2cc(-c3cc(F)c4c(=O)n(C5CCNC6(CC6)C5)ccc4c3)c(O)c(F)c2n1 (centres unmarked) [Compound 420, 2-{4-azaspiro[2.5]octan-7-yl}-8-fluoro-6-(7-fluoro-6-hydroxy-2-methylindazol-5-yl)isoquinolin-1-one] | 0.1 to 1 | 1 to 10 | 1 to 10 | 1 to 10 | 1 to 10 |
| Cc1cn2cc(-c3cc(F)c4c(=O)n(C5CCNC6(CC6)C5)ccc4c3)cc(Cl)c2n1 (centres unmarked) [Compound 413, 2-{4-azaspiro[2.5]octan-7-yl}-6-{8-chloro-2-methylimidazo[1,2-a]pyridin-6-yl}-8-fluoroisoquinolin-1-one] | < 0.1 | < 0.1 | < 0.1 | < 0.1 | < 0.1 |
| Cc1cn2cc(-c3ccc4c(=O)n(C5CCNCC5)cc(C)c4c3)cc(F)c2n1 [Compound 440, 6-{8-fluoro-2-methylimidazo[1,2-a]pyridin-6-yl}-4-methyl-2-(piperidin-4-yl)isoquinolin-1-one] | < 0.1 | 0.1 to 1 | 0.1 to 1 | < 0.1 | 0.1 to 1 |
| Cn1cc2cc(-n3cnc4cc(C5=CC6CCC(C5)N6)ccc4c3=O)ccc2n1 (centres unmarked) [Compound 160] | > 10 | > 10 | > 10 | > 10 | > 10 |
| CN1CCC(Nc2ccc3c(=O)n(-c4ccc5nn(C)cc5c4)cnc3c2)CC1 [Compound 163] | > 10 | > 10 | > 10 | > 10 | > 10 |
| Cn1cc2cc(-n3cnc4cc(NC5CCNCC5)ccc4c3=O)ccc2n1 [Compound 162] | > 10 | > 10 | > 10 | – | > 10 |
